Laboratory results as given in patent publication US7291295B2, “Method for precipitating finely divided solid particles” (Sociedad Espanola de Carburos Metalicos, S.A., priority 2000, dated 2007).
Values belong to the compound of their own block, whether it stands above or below them.

Test: Particle size and size distribution of precipitate by Coulter technique using light dispersion
Format: physicochemical
Description: FIGS. 8, 10 and 11 show the distribution of size of the particles using the Coulter technique using light dispersion.
The geometrical characteristics of the particles of precipitate (size and distribution of sizes) are measured by the Coulter technique that uses light dispersion with Fourier lenses. Thus, by “particle size” is meant the value of the median of the curve of distribution of particles, in % in volume, and by “distribution of sizes” is meant the value of the standard deviation from the same curve.

SMILES: C1N2CN3CN1CN(C2)C3 [methenamine]
- average size of particles of precipitate (Example 8, method of the invention, ethanol-CO2, 100 bar, 25° C., molar fraction of CO2 0.7): 8 μm

SMILES: CCCCNc1ccc(NCCCC)c2c1C(=O)c1ccccc1C2=O [solvent blue 35]
- average size of particles of precipitate (Example 3, method of the invention, acetone-CO2, 60 bar, 25° C., 1,400 ml solution (FIG. 8)): 5 μm
- average size of particles of precipitate (Example 4, GAS process fraction (filter 11), acetone-CO2, 60 bar, 25° C. (FIG. 10)): 70 μm
- average size of particles of precipitate (Example 4, method of the invention (filter 13), acetone-CO2, 60 bar, 25° C., 640 ml solution (FIG. 11)): 4 μm

Results, then the compound that gave them:

- average size of particles of precipitate (Example 1, method of the invention, ethanol-CO2, 100 bar, 42° C., 1,750 ml solution): 15 μm
- average size of particles of precipitate (Example 2, GAS process fraction (filter 11), ethanol-CO2, 100 bar, 42° C.): 50 μm
- average size of particles of precipitate (Example 2, method of the invention (filter 13), ethanol-CO2, 100 bar, 42° C., 1,600 ml solution): 15 μm
- average size of particles of precipitate (Example 5, GAS process (filter 11), acetone-CO2, 100 bar, 42° C.): 50 μm
SMILES: CC(=O)Nc1ccc(O)cc1 [acetaminophen]

- average size of particles of precipitate (Example 6, method of the invention, acetone-CO2, 70 bar, 25° C., molar fraction of CO2 0.6): 14 μm
SMILES: CC(=O)Oc1ccccc1C(=O)O [aspirin]

- average size of particles of precipitate (Example 7, method of the invention, ethyl acetate-CO2, 100 bar, 25° C., molar fraction of CO2 0.6): 2 μm
SMILES: CCCCCCCCCCCCCCCCCC(=O)O [stearic acid]
